Measured values reported in patent US20080045514A1 (Cytovia, Inc., priority 2006, published 2008).
Counter-ions that a name gives are not always drawn. Like-named read-outs stand apart in the source and are kept apart here.

Key:
Type in all cases: cell-based
[1] = test system: human B cell lymphoblastoid cell line Ramos; assay: Caspase cascade activation (EC50), Ramos; conditions: RAMOS cells, read-out: caspase potency (EC50) RAMOS
Summary of the method: (§1)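 Cells at 0.65×10^6 cells/mL exposed to compound at 0.016 to 10 μM final (1% DMSO) for 48 h at 37° C, 5% CO2. Caspase activity then read with 14 μM Ac-DEVD-R110 fluorogenic substrate in lysolecithin/DTT/PIPES pH 7.2 buffer at ex 485/em 530 nm after 3 h at room temperature. EC50 fitted sigmoidally from net RFU ratio to control.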

[2] = test system: human colon carcinoma cell line HCT116; assay: Inhibition of cell proliferation (GI50), HCT116; conditions: HCT 116 cells, 48 h, CellTiter-Glo
Procedure: (§2) Human breast cancer cell lines T-47D, human hepatocellular carcinoma cell line SNU398, human colon carcinoma cell line HCT116, human lung cancer cell line H1299, human leukemia cell line K562, human lymphoma cell line Raji, human B cell lymphoblastoid cell line Ramos, and human Burkitt's lymphoma cell line Namalwa were grown and harvested as in Example 100. An aliquot of […] of cells (4.4×10^4 cells/mL) was added to a well of a 96-well microtiter plate containing 5 μL of a 10% DMSO in RPMI-1640 media solution containing 10 nM to 100 μM of 3-(2-chlorophenyl)-6-(3,4-methylenedioxyphenyl)-7H-[1,2,4]triazolo[3,4-b][1,3,4]thiadiazine (1 nM to 10 μM final). An aliquot of 45 μL of cells was added to a well of a 96-well microtiter plate containing 5 μL of a 10% DMSO in RPMI-1640 media solution without compound as the control sample for maximal cell proliferation (LMax). The samples were mixed by agitation and then incubated at 37° C. for 48 h in a 5% CO2-95% humidity incubator. After incubation, the samples were removed from the incubator and 25 μL of CellTiter-Glo™ reagent (Promega) was added. The samples were mixed by agitation and incubated at room temperature for 10-15 min. Plates were then read using a luminescent plate reader (Model SPECTRAfluor Plus, Tecan) to give Ltest values.
(§3) The samples were mixed by agitation and then incubated at 37° C. for 0.5 h in a 5% CO2-95% humidity incubator. After incubation, the samples were removed from the incubator and 25 μL of CellTiter-Glo™ reagent (Promega) was added. The samples were mixed by agitation and incubated at […] 10-15 min at room temperature in a 5% CO2-95% humidity incubator. Fluorescence was read as above, (LStart) defining luminescence for initial cell number used as baseline in GI50 determinations.
(§4) Calculation: GI50 (dose for 50% inhibition of cell proliferation) is the concentration where [(Ltest−LStart)/(LMax−LStart)]=0.5.

[3] = test system: human colon carcinoma cell line HCT116; assay: Caspase cascade activation (EC50), HCT116; conditions: HCT116 cells, caspase cascade activation, read-out: caspase potency (EC50) HCT116
Summary of the method: as §1

[4] = test system: human Burkitt's lymphoma cell line Namalwa; assay: Caspase cascade activation (EC50), Namalwa; conditions: Namalwa cells, caspase cascade activation, read-out: caspase potency (EC50) Namalwa
Summary of the method: as §1

[5] = test system: human Burkitt's lymphoma cell line Namalwa; assay: Inhibition of cell proliferation (GI50), Namalwa; conditions: Namalwa cells, 48 h, CellTiter-Glo
Procedure: as §2, §3, §4

[6] = test system: human B cell lymphoblastoid cell line Ramos; assay: Inhibition of cell proliferation (GI50), Ramos; conditions: Ramos cells, 48 h, CellTiter-Glo
Procedure: as §2, §3, §4

[7] = test system: human lymphoma cell line Raji; assay: Inhibition of cell proliferation (GI50), Raji; conditions: Raji cells, 48 h, CellTiter-Glo
Procedure: as §2, §3, §4

[8] = test system: human leukemia cell line K562; assay: Inhibition of cell proliferation (GI50), K562; conditions: K562 cells, 48 h, CellTiter-Glo
Procedure: as §2, §3, §4

[9] = test system: human hepatocellular carcinoma cell line SNU398; assay: Caspase cascade activation (EC50), SNU398; conditions: SNU398 cells, caspase cascade activation, read-out: caspase potency (EC50) SNU398
Summary of the method: as §1

[10] = test system: human lymphoma cell line Raji; assay: Caspase cascade activation (EC50), Raji; conditions: RAJI cells, read-out: caspase potency (EC50) RAJI
Summary of the method: as §1

[11] = test system: human breast cancer cell line T-47D; assay: Caspase cascade activation (EC50), T-47D; conditions: T47D cells, caspase cascade activation, read-out: caspase potency (EC50) T47D
Summary of the method: as §1

[12] = Homo sapiens, Burkitts lymphoma cell

EC50 ([1]; Homo sapiens) [nM]	GI50 ([2]; Homo sapiens) [nM]	EC50 ([3]; Homo sapiens, HCT-116) [nM]	EC50 [4, 12] [nM]	GI50 [5, 12] [nM]	GI50 ([6]; Homo sapiens) [nM]	GI50 ([7]; Homo sapiens) [nM]	GI50 ([8]; Homo sapiens) [nM]	EC50 ([9]; Homo sapiens, SNU-398) [nM]	EC50 ([10]; Homo sapiens) [nM]	EC50 ([11]; Homo sapiens) [nM]	also measured	SMILES
–	–	–	–	–	–	–	–	–	–	–	EC50 [1]: 57 nM; GI50 [2]: 126 nM; EC50 [3]: 221 nM; EC50 [4]: 55 nM; GI50 [5]: 102 nM; GI50 [6]: 100 nM; GI50 [7]: 157 nM; GI50 [8]: 50 nM; EC50 [9]: 119 nM; EC50 [10]: 64 nM; EC50 [11]: 360 nM	COc1ccc(-c2nnc3n2N=C(c2ccc(N(C)C)cc2)CS3)cc1OC [Example 30, 6-(4-Dimethylminophenyl)-3-(3,4-dimethoxyphenyl)-7H-[1,2,4]triazolo[3,4-b][1,3,4]thiadiazine]
73	20	280	106	16	20	17	20	114	154	297	–	CCN(CC)c1ccc(C2=Nn3c(nnc3-c3cc(OC)cc(OC)c3)SC2)cc1 [Example 26, 6-(4-Diethylaminophenyl)-3-(3,5-dimethoxyphenyl)-7H-[1,2,4]triazolo[3,4-b][1,3,4]thiadiazine]
76	100	143	54	33	49	85	44	61	115	332	–	COc1ccc(C2=Nn3c(nnc3-c3ccccc3Br)SC2)cc1 [Example D3]
262	1180	280	253	579	176	1000	219	148	478	173	–	COc1ccccc1-c1nnc2n1N=C(c1ccc(O)cc1)CS2 [Example 7, 6-(4-Hydroxyphenyl)-3-(2-methoxyphenyl)-7H-[1,2,4]triazolo[3,4-b][1,3,4]thiadiazine hydrobromide]
65	359	100	80	112	33	587	37	61	121	503	–	COc1ccc(C2=Nn3c(nnc3-c3cccc(C)c3)SC2)cc1 [Example Q2]
306	1670	612	254	618	173	746	315	267	431	300	–	COc1ccccc1-c1nnc2n1N=C(c1ccc(OCCO)cc1)CS2 [Example 10, 6-(4-(2-Hydroxyethoxy)phenyl)-3-(2-methoxyphenyl)-7H-[1,2,4]triazolo[3,4-b][1,3,4]thiadiazine]
8	10	8	7	6	1	4	4	5	12	34	–	COc1ccc(-c2nnc3n2N=C(c2ccc(C)cc2)CS3)c(OC)c1 [Example 15, 3-(2,4-Dimethoxyphenyl)-6-(4-methylphenyl)-7H-[1,2,4]triazolo[3,4-b][1,3,4]thiadiazine hydrobromide]
127	1100	168	129	256	100	730	72	86	190	537	–	COc1ccc(C2=Nn3c(nnc3-c3ccc(C)cc3)SC2)cc1 [Example U2]
379	376	612	629	400	119	176	96	329	523	905	–	COc1ccc(C2=Nn3c(nnc3-c3cccc(Br)c3)SC2)cc1 [Example I2, 3-(3-Bromophenyl)-6-(4-methoxyphenyl)-7H-[1,2,4]triazolo[3,4-b][1,3,4]thiadiazine]
77	200	157	48	47	21	66	33	85	125	244	–	COc1ccc(C2=Nn3c(nnc3-c3ccc(Br)cc3)SC2)cc1 [Example E3]
275	1980	1260	321	161	105	285	317	694	511	612	–	COc1ccccc1-c1nnc2n1N=C(c1ccc(N3CCOCC3)cc1)CS2 [Example 25, 3-(2-Methoxyphenyl)-6-(4-morpholinophenyl)-7H-[1,2,4]triazolo[3,4-b][1,3,4]thiadiazine]
55	23	55	31	2	1	3	10	47	46	44	–	CCN(CC)c1ccc(C2=Nn3c(nnc3-c3ccc(OC)cc3OC)SC2)cc1 [Example 27, 6-(4-Diethylaminophenyl)-3-(2,4-dimethoxyphenyl)-7H-[1,2,4]triazolo[3,4-b][1,3,4]thiadiazine]
152	852	424	132	112	100	130	63	126	247	1710	–	COc1ccc(C2=Nn3c(nnc3-c3cccc(F)c3)SC2)cc1 [Example C3]
520	4250	5550	544	1470	503	6330	581	619	534	2390	–	COc1ccc(-c2nnc3n2N=C(c2ccc(N=[N+]=[N-])cc2)CS3)cc1OC [Example 31, 6-(4-Azidophenyl)-3-(3,4-dimethoxyphenyl)-7H-[1,2,4]triazolo[3,4-b][1,3,4]thiadiazine]
27	13	26	15	7	3	2	2	18	27	32	–	CCN(CC)c1ccc(C2=Nn3c(nnc3-c3ccccc3OC)SC2)cc1 [Example 23, 6-(4-Diethylaminophenyl)-3-(2-methoxyphenyl)-7H-[1,2,4]triazolo[3,4-b][1,3,4]thiadiazine]
